Data: patent US11219209B2, “Method of reducing crop damage” (Bayer Aktiengesellschaft, priority 2018, dated 2022)

Columns and labels:
Format in all cases: in vivo
[1] = tested on: winter wheat, TRZAW; assay: Method A: safener seed treatment, herbicide post-emergence, greenhouse crop damage test; details: safener seed treatment 0.5 g/kg only, no herbicide
Protocol: (§1) For the safener seed treatment, sufficient seeds were weighed into screw top glass bottles approximately twice the volume of the seeds.
(§2) The safener (mefenpyr-diethyl, formulated as suspension concentrate (SC)) was weighed out so that the required rates (g a.i./kg seed) would be obtained, dissolved in water (1 ml water per 10 g of seeds), and added to the seeds to produce a slurry.
(§3) The bottles were capped and then placed in an overhead shaker (set at medium speed for up to 1 hour) so that the seeds were evenly coated with the slurry. The bottles were uncapped and the seeds were sown as described above.
(§4) For the seed treatment process, the blind formulation (the SC formulation without the safener mefenpyr-diethyl) was used as seed treatment as described above.
Post-emergence application of the herbicide was done when the plants had reached growth stage BBCH11.
(§5) After application, the test plants were kept in the greenhouse under good growth conditions.
(§6) Values in the table below are mean values from at least 3 replicates.

[2] = tested on: winter wheat, TRZAW; assay: Method C: safener seed treatment, herbicide and safener tank mix post-emergence, greenhouse crop damage test; details: no herbicide
Protocol: as §1, §2, §3, §4
Post-emergence application was done when the plants had reached growth stage BBCH11.
The safener (mefenpyr-diethyl) was formulated as wettable powder (WP).
The compounds were sprayed onto the green parts of the plants as an aqueous suspension at an equivalent water application rate of 300 l/ha.
(§7) The combination of herbicide and safener was applied as a tank mix.
as §5, §6

[3] = tested on: winter wheat, TRZAW; assay: Method D: safener seed treatment, herbicide and safener tank mix pre-emergence, greenhouse crop damage test; details: no herbicide
Protocol: as §1, §2, §3, §4
The compounds were sprayed to the soil surface as an aqueous suspension at an equivalent water application rate of 300 l/ha.
as §7, §5, §6

[4] = safener seed treatment 0.5 g/kg only

CCOC(=O)C1=NN(c2ccc(Cl)cc2Cl)C(C)(C(=O)OCC)C1 (centres unmarked) [Safener seed treatment, ethyl 1-(2,4-dichlorophenyl)-5-(ethoxycarbonyl)-5-methyl-2-pyrazoline-3-carboxylate]
% crop damage [1]: 0%
% crop damage ([2]; safener 200 g/ha in tank mix only, post-emergence, 14 days after application): 5%
% crop damage [2, 4]: 0%
% crop damage ([3]; safener 200 g/ha in tank mix only, pre-emergence, 14 days after application): 5%
% crop damage [3, 4]: 2%
